Test results as given in the NIST ThermoML archive (doi:10.1016/j.jct.2012.11.011).
± gives the expanded uncertainty stated by the source.

Details: Liquid, Vibrating tube method

SMILES | mass density (288.15 K, 100 kPa) | mass density (288.15 K, 5000 kPa) | mass density (288.15 K, 10000 kPa) | mass density (288.15 K, 20000 kPa) | mass density (288.15 K, 30000 kPa) | mass density (288.15 K, 40000 kPa) | mass density (298.15 K, 100 kPa) | mass density (298.15 K, 5000 kPa) | mass density (298.15 K, 10000 kPa) | mass density (298.15 K, 20000 kPa) | mass density (298.15 K, 30000 kPa) | mass density (298.15 K, 40000 kPa) | mass density (308.15 K, 100 kPa) | mass density (308.15 K, 5000 kPa) | mass density (308.15 K, 10000 kPa) | mass density (308.15 K, 20000 kPa) | mass density (308.15 K, 30000 kPa) | mass density (308.15 K, 40000 kPa)
CCCCCCCC [octane] | 706.6 ± 0.3 kg/m3 | 710.9 ± 0.4 kg/m3 | 714.7 ± 0.4 kg/m3 | 721.7 ± 0.5 kg/m3 | 728.1 ± 0.6 kg/m3 | 734.3 ± 0.7 kg/m3 | 698.6 ± 0.3 kg/m3 | 703.4 ± 0.4 kg/m3 | 707 ± 0.4 kg/m3 | 714.6 ± 0.5 kg/m3 | 721.4 ± 0.6 kg/m3 | 727.7 ± 0.7 kg/m3 | 690.5 ± 0.3 kg/m3 | 695 ± 0.4 kg/m3 | 699.4 ± 0.4 kg/m3 | 707.3 ± 0.5 kg/m3 | 714.5 ± 0.6 kg/m3 | 720.8 ± 0.7 kg/m3
COC(=O)OC [dimethyl carbonate] | 1076.5 ± 0.4 kg/m3 | 1080.6 ± 0.4 kg/m3 | 1084.8 ± 0.4 kg/m3 | 1092.8 ± 0.4 kg/m3 | 1100.3 ± 0.5 kg/m3 | 1107.5 ± 0.5 kg/m3 | 1062.9 ± 0.4 kg/m3 | 1068 ± 0.4 kg/m3 | 1072.1 ± 0.4 kg/m3 | 1080.5 ± 0.4 kg/m3 | 1088.5 ± 0.4 kg/m3 | 1095.9 ± 0.5 kg/m3 | 1049.4 ± 0.3 kg/m3 | 1054.6 ± 0.4 kg/m3 | 1059.4 ± 0.4 kg/m3 | 1068.3 ± 0.4 kg/m3 | 1076.7 ± 0.4 kg/m3 | 1084.5 ± 0.5 kg/m3
CCCCCCCCCC [decane] | 733.6 ± 0.3 kg/m3 | 737.2 ± 0.3 kg/m3 | 740.7 ± 0.4 kg/m3 | 747.2 ± 0.5 kg/m3 | 753.2 ± 0.5 kg/m3 | 758.9 ± 0.6 kg/m3 | 726 ± 0.3 kg/m3 | 730.2 ± 0.3 kg/m3 | 733.5 ± 0.4 kg/m3 | 740.3 ± 0.5 kg/m3 | 746.5 ± 0.5 kg/m3 | 752.2 ± 0.6 kg/m3 | 718.3 ± 0.3 kg/m3 | 722.4 ± 0.3 kg/m3 | 726.2 ± 0.4 kg/m3 | 733.4 ± 0.5 kg/m3 | 740 ± 0.5 kg/m3 | 745.9 ± 0.6 kg/m3
CCOC(=O)OCC [diethyl carbonate] | 980.3 ± 0.2 kg/m3 | 984.5 ± 0.2 kg/m3 | 988.6 ± 0.2 kg/m3 | 996.3 ± 0.2 kg/m3 | 1003.6 ± 0.2 kg/m3 | 1010.5 ± 0.2 kg/m3 | 968.9 ± 0.3 kg/m3 | 973.8 ± 0.3 kg/m3 | 977.8 ± 0.2 kg/m3 | 986 ± 0.2 kg/m3 | 993.6 ± 0.2 kg/m3 | 1000.8 ± 0.2 kg/m3 | 957.7 ± 0.3 kg/m3 | 962.4 ± 0.3 kg/m3 | 967.1 ± 0.3 kg/m3 | 975.7 ± 0.3 kg/m3 | 983.8 ± 0.2 kg/m3 | 991.3 ± 0.2 kg/m3
